This is an account of results in US20230312510A1, “COMPOUNDS AND METHODS FOR TREATING NEURODEGENERATIVE DISEASES” (The McLean Hospital Corporation, priority 2020, published 2023).

The subject of one data set is HeLa cells. The experiment in a line: Starvation-induced autophagy in HeLa cells (Western blot of LC3B and p62). In kind it is cell-based. Conditions: EBSS 0-4 hrs, BafA1 10 nM, CQ 20 μM, SPV-94 1 μM. How it is done:
To limit basal autophagy, cells were incubated in fresh growth medium for 1 hr before starvation. Samples were analyzed by Western blot using autophagic flux markers LC3B and p62 (A) and its expression levels were quantified (10B and 10C).

The nature of data set [1]: Pharmacokinetic study after single oral administration. In kind it is in vivo, Rat. Conditions: Sprague-Dawley (SD), plasma, 20 mg/kg; for AUC(0-t): rat, Male SD Rats, PO; for concentration at 0.083 h / concentration at 0.25 h / concentration at 0.5 h / concentration at 1 h / concentration at 2 h / concentration at 4 h / concentration at 8 h / concentration at 24 h: male, Rat, oral, read-out: Plasma Conc. An excerpt:
The objective of this study was to characterize the pharmacokinetics (PK) of compound of Formula (II) in Male SD Rats after single intravenous (IV) and oral (PO) administration. […] Following PO administration with comparative example 2: […]

The subject of data set [2] is MPTP-induced PD model mice. Briefly: Sub-chronic MPTP-induced mice model of PD.
Method: Sub-chronic MPTP regimen (30 mg/kg/day, 5 days) was introduced.
The test system of another data set is CD-1 mice. Briefly: Escalating dose maximum tolerated dose study. Conditions: oral; for cage side observation, clinical signs: escalating dose from 5 mg/kg. In kind it is in vivo. How it is done: The objective of this study was to evaluate the escalating dose maximum tolerated dose study of compound of Formula (II) and comparative example
in CD-1 mice. Animals were monitored on a daily basis with body weights and clinical signs, and any abnormal observation findings were recorded.

Where [3] appears, read: L-DOPA 50, CQ 40, SPV-94 5 mg/kg/day.

The structures appear in SMILES notation.

As for `CO/C1=C\C(C)=C\[C@@H](C)[C@@H](O)[C@@H](C)C/C(C)=C/C=C/[C@H](OC)[C@@H]([C@@H](C)[C@@H](O)[C@H](C)[C@@]2(O)C[C@@H](O)[C@H](C)[C@@H](C(C)C)O2)OC1=O` [BafA1, bafilomycin A1], the “autophagy process (LC3B, p62)” value in the data set with HeLa cells is “induced autophagy initiation but inhibited autophagy process termination”.
For `Cc1cc(NCCCNc2ccnc3cc(Cl)ccc23)nc(N2CCCC2)n1` [comp. ex. 3], in data set [1], the AUC(0-t) is 271 ng·h/mL, the concentration at 0.083 h stood at 7.71 ng/mL, the concentration at 0.25 h amounted to 16 ng/mL and the concentration at 0.5 h was 16.6 ng/mL. Besides, in data set [1], the concentration at 1 h amounted to 19.4 ng/mL, the concentration at 2 h turned out to be 23.3 ng/mL, the concentration at 4 h was 19.5 ng/mL and the concentration at 8 h came out at 14.5 ng/mL. Moreover, in data set [1], the concentration at 24 h was found to be 3.53 ng/mL.
On to `N[C@@H](Cc1ccc(O)c(O)c1)C(=O)O` [L-DOPA, L-3,4-dihydroxyphenylalanine], for which the “olfactory discrimination test (olfaction), sub-acute stage” value in data set [2] is “failed to restore olfaction”. For the same compound, in data set [2] (setting [3]), the body weight recovery result is reported as “regained body weight after day 8”; the “cylinder test, rearing numbers, sub-chronic treatment” value is “recovered rearing numbers in the cylinder test”; the “pole test, time to traverse, sub-chronic treatment” value is “reduced time to traverse on a pole”; the “rotarod latency to fall, sub-chronic treatment” value is listed as “significantly improved motor deficits on the rotarod latency to fall”. Further, the Nurr1-immunoreactive cells result in data set [2] (SNpc) was “failed to protect Nurr1 expressions”. In addition, the “Iba-1+ microglia numbers” value in data set [2] (STR and SNpc) is recorded as “failed to suppress microglial activation”. In addition, in data set [2] (STR, SNpc and OB), the “TH+ DAergic neurons (counting and densitometry)” value is given as “did not show protective effect”. For the same compound, in data set [2] (chronic administration), the “dyskinesia in the abnormal involuntary movements (AIMs) test” value is “developed dyskinesia”. Moreover, the “olfactory discrimination test (olfaction), chronic treatment” value in data set [2] (day 14) is recorded as “could not recover olfaction even with chronic treatment”. Besides, the “rotarod latency to fall, chronic treatment” value in data set [2] (day 15) is recorded as “improved latency to fall on the rotarod on day 15”. Moreover, the “velocity during olfactory discrimination” value in data set [2] (sub-acute stage) is recorded as “hyperactivity indicated as increased velocity”.
Take `Clc1ccc2c(NCCN3CCN(c4ccnc(-n5ccnc5)n4)CC3)ccnc2c1` [Formula (II)]: in the data set on CD-1 mice (CD-1 mice), the “cage side observation, clinical signs” value was “no abnormalities were observed”. Further, in data set [1], the AUC(0-t) was determined as 7340 ng·h/mL, the concentration at 0.083 h was found to be 10.7 ng/mL, the concentration at 0.25 h was 118 ng/mL and the concentration at 0.5 h amounted to 559 ng/mL. In data set [1], the concentration at 1 h is 1180 ng/mL, the concentration at 2 h was 1020 ng/mL, the concentration at 4 h was determined as 953 ng/mL and the concentration at 8 h was determined as 294 ng/mL. The concentration at 24 h in data set [1] is 16.8 ng/mL.
Consider `Cc1cc(NCCCNc2ccnc3cc(Cl)ccc23)nc(N2CCCCC2)n1` [comparative example], for which, in the data set with CD-1 mice (CD-1 male mice, 40 mg/kg), the “tolerability at 40 mg/kg” value is “cannot be tolerated well”. The “clinical signs and outcome at 40 mg/kg” value in the data set on CD-1 mice (CD-1 mice, 40 mg/kg) is “prone, slightly low temperature and twitched to death on the fourth dosing day”. For the same compound, in the data set with CD-1 mice (CD-1 mice), the “cage side observation, clinical signs” value is “weight loss, roach back, rough coat, low temperature, low activity, tremble or/and dying”.
Regarding `Cc1cc(NCCCNc2ccnc3cc(Cl)ccc23)nc(N2CCN(C)CC2)n1` [comp. ex. 2], in data set [1], the AUC(0-t) worked out at 250 ng·h/mL, the concentration at 0.083 h is 5.15 ng/mL, the concentration at 0.25 h stood at 6.68 ng/mL and the concentration at 0.5 h worked out at 9.91 ng/mL. For the same compound, in data set [1], the concentration at 1 h stood at 13.9 ng/mL, the concentration at 2 h worked out at 14.9 ng/mL, the concentration at 4 h was found to be 12 ng/mL and the concentration at 8 h amounted to 16.5 ng/mL. In addition, in data set [1], the concentration at 24 h was 5.92 ng/mL.
